Test results as given in ChEMBL document CHEMBL1201862, “PubChem BioAssay data set” (2004).
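Five concentrations, 48 hours, 96-well plates. GI50 marks 50% less growth.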 Calls of active or inactive are those of the source. Cut-off read from the data, not from the text of the source: active = GI50 up to about 1.1 µM and inactive = higher.

Tests used:
Test in all cases: NCI anticancer screen, dose series, 48 h
[1] = tested on: SN12C
[2] = tested on: RPMI-8226
[3] = tested on: SK-MEL-5
[4] = tested on: ACHN
[5] = tested on: HOP-62
[6] = tested on: SW-620
[7] = tested on: UACC-62
[8] = tested on: M14
[9] = tested on: MOLT-4
[10] = tested on: SK-MEL-2
[11] = tested on: HCC 2998
[12] = tested on: HCT-116
[13] = tested on: COLO 205
[14] = tested on: IGROV-1
[15] = tested on: UO-31
[16] = tested on: MDA-MB-231
[17] = tested on: OVCAR-8
[18] = tested on: NCI-H460
[19] = tested on: MDA-MB-435
[20] = tested on: T47D

Measured: GI50

COC(=O)Cc1c([C@H]2[C@H](CC(=O)OC)c3ccccc3N2S(=O)(=O)c2ccc(C)cc2)[nH]c2ccccc12
inactive: [1] > 100 µM | [2] 7 µM | [3] > 100 µM | [4] > 100 µM | [5] > 100 µM | [6] > 100 µM | [7] > 100 µM | [8] > 100 µM | [9] 3.4 µM | [10] > 100 µM | [11] > 100 µM | [12] > 100 µM | [13] > 100 µM | [14] 3.13 µM | [15] > 100 µM | [16] > 100 µM | [17] > 100 µM | [18] > 100 µM | [19] > 100 µM

Cc1ccc(NC(=O)C(=O)C2C(=O)C3=C(CC2(C)C)NC2C=CC=CC2S3)c(C)c1 (stereo unspecified)
inactive: [1] > 100 µM | [3] 85.1 µM | [4] > 100 µM | [6] > 100 µM | [7] > 100 µM | [9] 99.8 µM | [10] > 100 µM | [11] > 100 µM | [12] > 100 µM | [13] > 100 µM | [14] 49.3 µM | [15] 48.2 µM | [16] 53.5 µM | [17] 37.5 µM | [18] > 100 µM | [19] > 100 µM

CCCCN1CCC(O)(c2cc(C(=O)O)[nH]c2-c2cc(C)no2)C1=O (stereo unspecified)
inactive: [2] > 100 µM | [3] > 100 µM | [4] > 100 µM | [5] > 100 µM | [6] > 100 µM | [7] > 100 µM | [8] > 100 µM | [9] > 100 µM | [10] > 100 µM | [11] > 100 µM | [12] > 100 µM | [13] > 100 µM | [14] > 100 µM | [15] > 100 µM | [16] > 100 µM | [17] > 100 µM | [18] > 100 µM | [19] > 100 µM

C=C(CCOC)CCC1CCCCC(=C)[C@H]1O (stereo partly specified)
inactive: [1] > 100 µM | [2] > 100 µM | [3] > 100 µM | [4] > 100 µM | [5] > 100 µM | [6] > 100 µM | [7] > 100 µM | [8] > 100 µM | [9] > 100 µM | [10] > 100 µM | [12] > 100 µM | [20] > 100 µM | [13] > 100 µM | [14] > 100 µM | [15] > 100 µM | [16] > 100 µM | [17] > 100 µM | [18] > 100 µM | [19] > 100 µM

COc1ccc(OC)c(NC(=O)CCC/C(CC(=O)c2ccc(O)c(OC)c2)=N\Nc2ccc([N+](=O)[O-])cc2)c1
inactive: [1] > 100 µM | [2] > 100 µM | [3] > 100 µM | [4] 80.4 µM | [5] 69.5 µM | [6] > 100 µM | [7] 48.8 µM | [8] > 100 µM | [9] > 100 µM | [10] 51.8 µM | [11] > 100 µM | [12] > 100 µM | [13] > 100 µM | [14] > 100 µM | [15] 83 µM | [17] 28.2 µM | [18] > 100 µM

O=C1c2ccccc2-c2nc(-c3cccnc3)cc3c2c1nc1ccccc13
inactive: [1] > 100 µM | [2] 45.8 µM | [4] > 100 µM | [5] > 100 µM | [6] > 100 µM | [7] 32.7 µM | [8] 14.3 µM | [9] 23.6 µM | [10] > 100 µM | [11] > 100 µM | [12] > 100 µM | [13] > 100 µM | [14] 25.5 µM | [15] > 100 µM | [16] > 100 µM | [17] > 100 µM | [18] 22.8 µM | [19] 18.2 µM

COC(=O)C1=C(O)C(C(=O)OC)[C@]2(O)[C@@H](C(=O)OC)[C@H]1[C@H](C)[C@@H](c1ccccc1)[C@@H]2C(=O)OC (stereo partly specified)
inactive: [1] 66.4 µM | [3] 36.2 µM | [4] 91.8 µM | [5] > 100 µM | [6] 44.3 µM | [7] 65.5 µM | [8] 88.1 µM | [9] 85.9 µM | [10] 96.4 µM | [12] 60.3 µM | [20] > 100 µM | [13] 77.3 µM | [14] 16.8 µM | [16] > 100 µM | [17] 54.2 µM | [18] 69.2 µM | [19] 46.1 µM

CC1CCCOc2ccc(cc2)/C=N\c2ccc(cc2)CCc2ccc(cc2)/N=C\c2ccc(cc2)OCCC1
inactive: [1] > 100 µM | [2] > 100 µM | [3] > 100 µM | [4] > 100 µM | [5] > 100 µM | [6] > 100 µM | [7] > 100 µM | [8] > 100 µM | [9] > 100 µM | [10] > 100 µM | [11] > 100 µM | [12] > 100 µM | [13] > 100 µM | [14] > 100 µM | [15] > 100 µM | [16] > 100 µM | [17] > 100 µM | [18] > 100 µM | [19] > 100 µM

Cc1ccc(-n2c(C)n[nH]c2=O)cc1
inactive: [1] > 100 µM | [2] > 100 µM | [3] > 100 µM | [4] > 100 µM | [5] > 100 µM | [6] > 100 µM | [7] > 100 µM | [8] > 100 µM | [9] > 100 µM | [10] > 100 µM | [11] > 100 µM | [12] > 100 µM | [13] > 100 µM | [14] > 100 µM | [15] > 100 µM | [16] > 100 µM | [17] > 100 µM | [19] > 100 µM

O=C(O)C(C1NCCS1)N1C(=O)c2ccccc2C1=O (stereo unspecified)
inactive: [1] > 100 µM | [2] > 100 µM | [3] > 100 µM | [4] > 100 µM | [5] > 100 µM | [6] > 100 µM | [7] > 100 µM | [8] > 100 µM | [9] > 100 µM | [10] > 100 µM | [12] > 100 µM | [20] > 100 µM | [13] > 100 µM | [14] > 100 µM | [15] > 100 µM | [16] > 100 µM | [17] > 100 µM | [18] > 100 µM | [19] > 100 µM

CC12C=CC(C)(C3C(=O)C4C(C(=O)C31)C1(C)C=CC4(C)[S+]1[O-])[S+]2[O-] (stereo unspecified)
inactive: [3] 21.9 µM | [4] > 100 µM | [5] > 100 µM | [7] 74 µM | [8] > 100 µM | [11] > 100 µM | [13] 34.9 µM | [14] 83.9 µM | [15] > 100 µM | [16] > 100 µM | [17] 56 µM | [18] 53.1 µM

CC(C)(C)OC(=O)n1c(Cl)c(C=O)c2ccccc21
inactive: [1] 23.7 µM | [2] 10.9 µM | [3] 43.5 µM | [4] 23.9 µM | [5] 20.6 µM | [6] 36.2 µM | [7] 19.3 µM | [8] 34.8 µM | [9] 51.8 µM | [10] 30.1 µM | [20] 30.6 µM | [13] 56.4 µM | [14] 28.2 µM | [15] 19.1 µM | [16] 33.3 µM | [17] 28.1 µM | [18] 21.2 µM | [19] 43.9 µM

Oc1nc2cc(Cl)ccc2nc1/C(=N\Nc1ccccc1)C(O)c1ccc(Cl)c(Cl)c1 (stereo unspecified)
inactive: [1] 36.7 µM | [2] > 100 µM | [3] > 100 µM | [4] > 100 µM | [5] > 100 µM | [6] > 100 µM | [7] > 100 µM | [8] > 100 µM | [9] > 100 µM | [10] > 100 µM | [11] > 100 µM | [12] > 100 µM | [13] > 100 µM | [14] > 100 µM | [15] > 100 µM | [17] > 100 µM | [18] > 100 µM

Nc1ncnc2c1sc(=S)n2-c1ccccc1
inactive: [1] > 100 µM | [2] > 100 µM | [3] > 100 µM | [4] > 100 µM | [5] > 100 µM | [6] > 100 µM | [7] > 100 µM | [8] > 100 µM | [9] > 100 µM | [10] > 100 µM | [11] > 100 µM | [12] > 100 µM | [13] > 100 µM | [14] > 100 µM | [15] 89.3 µM | [17] > 100 µM | [18] > 100 µM

CC1(C)C(=O)C(C)(C)C1=S
inactive: [1] > 100 µM | [2] > 100 µM | [3] > 100 µM | [4] > 100 µM | [5] > 100 µM | [6] > 100 µM | [7] > 100 µM | [8] > 100 µM | [9] > 100 µM | [10] > 100 µM | [11] > 100 µM | [12] > 100 µM | [13] > 100 µM | [14] > 100 µM | [15] > 100 µM | [17] > 100 µM | [18] > 100 µM
